We go through 29 molecules from patent US9328099B2, “Cyanomethylpyrazole carboxamides as janus kinase inhibitors” (Merck Sharp & Dohme Corp., priority 2011, dated 2016).

One assay addresses JAK2 (Homo sapiens (Human), UniProt O60674). The assay is described as follows: Jak Biochemical HTRF Assay, JAK2. The settings on record: HTRF biochemical assay, GST-tagged catalytic domain; top concentration tested […]. The text has this: (§1) Jak Biochemical HTRF Assay Protocol
(§2) Subsequent reagent additions employed an Agilent Bravo.
In general terms: In TR-FRET formats the signal depends on donor and acceptor labels being close together.

A further assay deals with JAK1 (Homo sapiens (Human), UniProt P23458). The assay is described as follows: Jak Biochemical HTRF Assay, JAK1. The note with it: HTRF biochemical assay, GST-tagged catalytic domain; top concentration tested […]; read-out: JAK1 IC50.
Source text: as §1, §2

Broadly, the IC50 is the concentration at which inhibition is half-maximal.

Chain of JAK2 (O60674 849-1124): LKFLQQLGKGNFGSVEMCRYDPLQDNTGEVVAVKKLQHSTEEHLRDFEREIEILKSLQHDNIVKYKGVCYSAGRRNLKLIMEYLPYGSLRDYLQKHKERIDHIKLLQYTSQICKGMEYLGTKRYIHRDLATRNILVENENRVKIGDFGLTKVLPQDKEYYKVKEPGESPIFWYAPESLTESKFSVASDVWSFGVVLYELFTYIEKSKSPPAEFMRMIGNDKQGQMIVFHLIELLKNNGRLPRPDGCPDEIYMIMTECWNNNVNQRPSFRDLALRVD
Chain of JAK1 (P23458 875-1153): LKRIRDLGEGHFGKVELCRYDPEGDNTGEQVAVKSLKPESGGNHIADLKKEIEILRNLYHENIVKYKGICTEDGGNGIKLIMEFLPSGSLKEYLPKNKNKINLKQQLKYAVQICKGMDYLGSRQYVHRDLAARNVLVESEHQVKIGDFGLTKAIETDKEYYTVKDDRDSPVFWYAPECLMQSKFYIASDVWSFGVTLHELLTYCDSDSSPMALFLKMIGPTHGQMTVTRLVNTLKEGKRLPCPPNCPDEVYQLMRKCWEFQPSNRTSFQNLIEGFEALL

With `N#CCC1(n2cc(C(N)=O)c(Nc3ccccc3)n2)CCN(S(=O)(=O)Cc2ccccc2)CC1` [Example 37-8, 1-[1-(benzylsulfonyl)-4-(cyanomethyl)piperidin-4-yl]-3-(phenylamino)-1H-pyrazole-4-carboxamide], the IC50 came to 35 nM on JAK2 and 15 nM at JAK1.
For the molecule `COc1ccc(S(=O)(=O)N2CCC(CC#N)(n3cc(C(N)=O)c(Nc4ccccc4)n3)CC2)cc1` [Example 37-9, 1-{4-(cyanomethyl)-1-[(4-methoxyphenyl)sulfonyl]piperidin-4-yl}-3-(phenylamino)-1H-pyrazole-4-carboxamide], the IC50 at JAK2 was determined as 3 nM; on JAK1 it was 0.8 nM.
As to `COc1cccc(S(=O)(=O)N2CCC(CC#N)(n3cc(C(N)=O)c(Nc4ccccc4)n3)CC2)c1` [Example 37-10, 1-{4-(cyanomethyl)-1-[(3-methoxyphenyl)sulfonyl]piperidin-4-yl}-3-(phenylamino)-1H-pyrazole-4-carboxamide], the half-maximal inhibitory concentration (IC50) at JAK2 stood at 3 nM; at JAK1, 0.7 nM.
On to `N#CCC1(n2cc(C(N)=O)c(Nc3ccccc3)n2)CCN(S(=O)(=O)c2cccc(Cl)c2)CC1` [Example 37-11, 1-{1-[(3-chlorophenyl)sulfonyl]-4-(cyanomethyl)piperidin-4-yl}-3-(phenylamino)-1H-pyrazole-4-carboxamide], for which the results for the IC50 at JAK2 and at JAK1 were 2 nM and 0.6 nM, respectively.
In the case of `N#CCC1(n2cc(C(N)=O)c(Nc3ccccc3)n2)CCN(S(=O)(=O)c2ccccc2Cl)CC1` [Example 37-12, 1-{1-[(2-chlorophenyl)sulfonyl]-4-(cyanomethyl)piperidin-4-yl}-3-(phenylamino)-1H-pyrazole-4-carboxamide], the results for the IC50 against JAK2 and at JAK1 were 9 nM and 3 nM, respectively.
Regarding `N#CCC1(n2cc(C(N)=O)c(Nc3ccccc3)n2)CCN(S(=O)(=O)c2ccc(-c3ccccc3)cc2)CC1` [Example 37-14, 1-[1-(biphenyl-4-ylsulfonyl)-4-(cyanomethyl)piperidin-4-yl]-3-(phenylamino)-1H-pyrazole-4-carboxamide], the IC50 was found to be 24 nM against JAK2 and 5 nM at JAK1.
Turning to `N#CCC1(n2cc(C(N)=O)c(Nc3ccccc3)n2)CCN(S(=O)(=O)C2CC2)CC1` [Example 37-15, 1-[4-(cyanomethyl)-1-(cyclopropylsulfonyl)piperidin-4-yl]-3-(phenylamino)-1H-pyrazole-4-carboxamide], the IC50 is 3 nM against JAK2 and 0.4 nM on JAK1.
For the molecule `CS(=O)(=O)N1CC(CC#N)(n2cc(C(N)=O)c(Nc3ccccc3)n2)C1` [Example 37-16, 1-[3-(cyanomethyl)-1-(methylsulfonyl)azetidin-3-yl]-3-(phenylamino)-1H-pyrazole-4-carboxamide], the IC50 worked out at 366 nM against JAK2 and 79 nM at JAK1.
For the molecule `N#CCC1(n2cc(C(N)=O)c(Nc3ccccc3)n2)CN(S(=O)(=O)c2ccco2)C1` [Example 37-17, 1-[3-(cyanomethyl)-1-(furan-2-ylsulfonyl)azetidin-3-yl]-3-(phenylamino)-1H-pyrazole-4-carboxamide], the IC50 at JAK2 amounted to 247 nM; on JAK1, 95 nM.
The matching figures for `N#CCC1(n2cc(C(N)=O)c(Nc3ccccc3)n2)CN(S(=O)(=O)C(F)(F)F)C1` [Example 37-18, 1-{3-(cyanomethyl)-1-[(trifluoromethyl)sulfonyl]azetidin-3-yl}-3-(phenylamino)-1H-pyrazole-4-carboxamide]: 585 nM and 159 nM.
For the molecule `N#CCC1(n2cc(C(N)=O)c(Nc3ccccc3)n2)CN(S(=O)(=O)c2ccccc2)C1` [Example 37-19, 1-[3-(cyanomethyl)-1-(phenylsulfonyl)azetidin-3-yl]-3-(phenylamino)-1H-pyrazole-4-carboxamide], the IC50 against JAK2 turned out to be 463 nM; at JAK1, 138 nM.
For the molecule `N#CCC1(n2cc(C(N)=O)c(Nc3ccccc3)n2)CN(S(=O)(=O)Cc2ccccc2)C1` [Example 37-20, 1-[1-(benzylsulfonyl)-3-(cyanomethyl)azetidin-3-yl]-3-(phenylamino)-1H-pyrazole-4-carboxamide], the IC50 came to 521 nM against JAK2 and 105 nM on JAK1.
`N#CCC1(n2cc(C(N)=O)c(Nc3ccccc3)n2)CN(C(=O)Nc2cccc(F)c2)C1` [Example 38-1, 1-{3-(Cyanomethyl)-1-[(3-fluorophenyl)carbamoyl]azetidin-3-yl}-3-(phenylamino)-1H pyrazole-4-carboxamide]: the values for the IC50 at JAK2 and at JAK1 were 68 nM and 3 nM, respectively.
As for `N#CCC1(n2cc(C(N)=O)c(Nc3ccccc3)n2)CN(C(=O)NC2CCCCC2)C1` [Example 38-2, 1-[3-(cyanomethyl)-1-(cyclohexylcarbamoyl)azetidin-3-yl]-3-(phenylamino)-1H-pyrazole-4-carboxamide], the IC50 against JAK2 was 628 nM; on JAK1 it was 20 nM.
The matching figures for `CC(C)NC(=O)N1CC(CC#N)(n2cc(C(N)=O)c(Nc3ccccc3)n2)C1` [Example 38-3, 1-{3-(cyanomethyl)-1-[(1-methylethyl)carbamoyl]azetidin-3-yl}-3-(phenylamino)-1H-pyrazole-4-carboxamide]: 185 nM and 10 nM.
For `Cc1ccc(NC(=O)N2CC(CC#N)(n3cc(C(N)=O)c(Nc4ccccc4)n3)C2)cc1C` [Example 38-4, 1-{3-(cyanomethyl)-1-[(3,4-dimethylphenyl)carbamoyl]azetidin-3-yl}-3-(phenylamino)-1H-pyrazole-4-carboxamide], the IC50 against JAK2 worked out at 191 nM; on JAK1, 12 nM.
`CCCCNC(=O)N1CC(CC#N)(n2cc(C(N)=O)c(Nc3ccccc3)n2)C1` [Example 38-5, 1-[1-(butylcarbamoyl)-3-(cyanomethyl)azetidin-3-yl]-3-(phenylamino)-1H-pyrazole-4-carboxamide]: the results for the IC50 at JAK2 and on JAK1 were 214 nM and 4 nM, respectively.
Consider `Cc1ccc(NC(=O)N2CC(CC#N)(n3cc(C(N)=O)c(Nc4ccccc4)n3)C2)cc1` [Example 38-6, 1-{3-(cyanomethyl)-1-[(4-methylphenyl)carbamoyl]azetidin-3-yl}-3-(phenylamino)-1H-pyrazole-4-carboxamide], for which the IC50 at JAK2 is 69 nM; on JAK1, 2 nM.
Regarding `CC(C)c1ccc(NC(=O)N2CC(CC#N)(n3cc(C(N)=O)c(Nc4ccccc4)n3)C2)cc1` [Example 38-7], the IC50 on JAK2 was found to be 80 nM; on JAK1, 5 nM.
`CC(C)c1ccccc1NC(=O)N1CC(CC#N)(n2cc(C(N)=O)c(Nc3ccccc3)n2)C1` [Example 38-8, 1-[3-(cyanomethyl)-1-{[2-(1-methylethyl)phenyl]carbamoyl}azetidin-3-yl]-3-(phenylamino)-1H-pyrazole-4-carboxamide]: the IC50 against JAK2 amounted to 428 nM; at JAK1, 14 nM.
Take `N#CCC1(n2cc(C(N)=O)c(Nc3ccccc3)n2)CN(C(=O)Nc2cc(F)ccc2F)C1` [Example 38-10, 1-{3-(cyanomethyl)-1-[(2,5-difluorophenyl)carbamoyl]azetidin-3-yl}-3-(phenylamino)-1H-pyrazole-4-carboxamide]: the IC50 against JAK2 was determined as 158 nM; at JAK1, 5 nM.
Turning to `Cc1cccc(NC(=O)N2CC(CC#N)(n3cc(C(N)=O)c(Nc4ccccc4)n3)C2)c1` [Example 38-11, 1-{3-(cyanomethyl)-1-[(3-methylphenyl)carbamoyl]azetidin-3-yl}-3-(phenylamino)-1H-pyrazole-4-carboxamide], the IC50 against JAK2 is 78 nM; at JAK1 it was 4 nM.
As to `Cc1cc(C)c(NC(=O)N2CC(CC#N)(n3cc(C(N)=O)c(Nc4ccccc4)n3)C2)c(C)c1` [Example 38-12, 1-{3-(cyanomethyl)-1-[(2,4,6-trimethylphenyl)carbamoyl]azetidin-3-yl}-3-(phenylamino)-1H-pyrazole-4-carboxamide], the figures for the IC50 at JAK2 and on JAK1 were 1440 nM and 128 nM, respectively.
Consider `Cc1ccc(NC(=O)N2CC(CC#N)(n3cc(C(N)=O)c(Nc4ccccc4)n3)C2)cc1Cl` [Example 38-13, 1-{1-[(3-chloro-4-methylphenyl)carbamoyl]-3-(cyanomethyl)azetidin-3-yl}-3-(phenylamino)-1H-pyrazole-4-carboxamide], for which the values for the IC50 on JAK2 and on JAK1 were 339 nM and 21 nM, respectively.
For the molecule `Cc1cc(Cl)ccc1NC(=O)N1CC(CC#N)(n2cc(C(N)=O)c(Nc3ccccc3)n2)C1` [Example 38-14, 1-{1-[(4-chloro-2-methylphenyl)carbamoyl]-3-(cyanomethyl)azetidin-3-yl}-3-(phenylamino)-1H-pyrazole-4-carboxamide], the IC50 on JAK2 is 334 nM; on JAK1, 25 nM.
Consider `N#CCC1(n2cc(C(N)=O)c(Nc3ccccc3)n2)CN(C(=O)Nc2ccc(C#N)cc2)C1` [Example 38-15, 1-{3-(cyanomethyl)-1-[(4-cyanophenyl)carbamoyl]azetidin-3-yl}-3-(phenylamino)-1H-pyrazole-4-carboxamide], for which the results for the IC50 against JAK2 and on JAK1 were 21 nM and 0.9 nM, respectively.
Taken in the same sequence, the figures for `Cc1ccc(C)c(NC(=O)N2CC(CC#N)(n3cc(C(N)=O)c(Nc4ccccc4)n3)C2)c1` [Example 38-16, 1-{3-(cyanomethyl)-1-[(2,5-dimethylphenyl)carbamoyl]azetidin-3-yl}-3-(phenylamino)-1H-pyrazole-4-carboxamide] were 111 nM and 7 nM.
For the molecule `Cc1ccc(Cl)cc1NC(=O)N1CC(CC#N)(n2cc(C(N)=O)c(Nc3ccccc3)n2)C1` [Example 38-17, 1-{1-[(5-chloro-2-methylphenyl)carbamoyl]-3-(cyanomethyl)azetidin-3-yl}-3-(phenylamino)-1H-pyrazole-4-carboxamide], the IC50 stood at 149 nM against JAK2 and 11 nM on JAK1.
Take `CCCNC(=O)N1CC(CC#N)(n2cc(C(N)=O)c(Nc3ccccc3)n2)C1` [Example 38-18, 1-[3-(cyanomethyl)-1-(propylcarbamoyl)azetidin-3-yl]-3-(phenylamino)-1H-pyrazole-4-carboxamide]: the IC50 was 106 nM on JAK2 and 7 nM on JAK1.
